Experimental data from patent US12310364B2, “Safened compositions comprising pyridine carboxylate herbicides and cloquintocet” (Corteva Agriscience LLC, priority 2018, dated 2025).
Values joined by “and” are separate entries in the source; they are usually repeats but may differ in a detail not shown here. Identical values can stand only once.

Tests used:
Format in all cases: in vivo
[1] = system: soybean (GLXMA, Glycine max); assay: Greenhouse postemergence trial, visual injury on soybean; settings: Table 19
From the text: (§1) Greenhouse Trial Methodology—Evaluation of Postemergence Herbicidal Safening in Crops
(§2) Seeds of the desired test plant species were planted in a 90:10% v/v (volume/volume) mixture of PRO-MIX® BX (Premier Tech Horticulture, Quakertown, PA, USA) and PROFILE® GREENS GRADE™ (Profile Products LLC, Buffalo Grove, IL, USA) planting mixture, which typically has a pH of 5.2 to 6.2 and an organic matter content of at least 50 percent, in plastic pots with a surface area of 103.2 square centimeters (cm^2). When required to ensure good germination and healthy plants, a fungicide treatment and/or other chemical or physical treatment was applied. The plants were grown for 7-36 days (d) in a greenhouse with an approximate 14-hour (h) photoperiod which was maintained at about 23° C. during the day and 22° C. during the night. Nutrients and water were added on a regular basis and supplemental lighting was provided with overhead metal halide 1000-Watt lamps as necessary. The plants were employed for testing when they reached the second or third true leaf stage.
(§3) Emulsifiable concentrates of each of each pyridine carboxylate herbicide (Compound A or Compound B) were prepared at 100 grams acid equivalent per liter (g ae/L). An aliquot of each emulsifiable concentrate was placed in a 25 mL glass vial and diluted with an aqueous mixture of 1.25% (v/v) ACTIROB® B esterified rapeseed oil (Bayer Crop Science, Research Triangle Park, NC, USA) or MSO® Concentrate with LECI-TECH® methylated soybean oil (Loveland Products, Loveland, CO, USA) to obtain concentrated stock solutions at the highest application rate for each herbicide, based upon a 12 milliliter (mL) application volume at a rate of 187 liters per hectare (L/ha). The concentrated stock solutions were further diluted with an aqueous mixture of 1.25% v/v ACTIROB® B or MSO® Concentrate with LECI-TECH® to obtain stock solutions at reduced application rates for each herbicide. Spray solutions of the herbicide combinations (Compound A or Compound B plus safener) were prepared by adding weighed amounts or aliquots of the safener to the stock solutions of Compound A or Compound B to form 12-mL spray solutions in two-way combinations. […]
(§4) The treated plants and control plants were placed in a greenhouse as described above and watered by sub-irrigation to prevent wash-off of the test compounds. After 20-22 d, the condition of the test plants as compared with that of the control plants was determined visually and scored on a scale of 0 to 100 percent where 0 corresponds to no injury and 100 corresponds to complete kill.

[2] = system: common lambsquarters (CHEAL, Chenopodium album L.); assay: Greenhouse postemergence trial, visual injury on common lambsquarters; settings: Table 19
From the text: as §1, §2, §3, §4

[3] = system: Anthemis arvensis (field chamomile), ANTAR; assay: Greenhouse postemergence trial, visual injury on field chamomile
From the text: as §1, §2
(§5) Emulsifiable concentrates of each of each pyridine carboxylate herbicide (Compound A or Compound B) were prepared at 100 grams acid equivalent per liter (g ae/L). An aliquot of each emulsifiable concentrate was placed in a 25 mL glass vial and diluted with an aqueous mixture of 1.25% (v/v) ACTIROB® B esterified rapeseed oil (Bayer Crop Science, Research Triangle Park, NC, USA) or MSO® Concentrate with LECI-TECH® methylated soybean oil (Loveland Products, Loveland, CO, USA) to obtain concentrated stock solutions at the highest application rate for each herbicide, based upon a 12 milliliter (mL) application volume at a rate of 187 liters per hectare (L/ha). The concentrated stock solutions were further diluted with an aqueous mixture of 1.25% v/v ACTIROB® B or MSO® Concentrate with LECI-TECH® to obtain stock solutions at reduced application rates for each herbicide. Spray solutions of the herbicide combinations (Compound A or Compound B plus safener) were prepared by adding weighed amounts or aliquots of the safener to the stock solutions of Compound A or Compound B to form 12-mL spray solutions in two-way combinations.
(§6) The spray solutions were applied to the plant material with an overhead Mandel track sprayer equipped with 8002E nozzles calibrated to deliver 187 L/ha over an application area of 0.503 square meters (m^2) at a spray height of 18 inches (43 centimeters (cm)) above the average plant canopy. Control plants were sprayed in the same manner with the solvent blank. All herbicide (component a) application rates are given as “g ae/ha” and all safener (component b) application rates are given as “g ai/ha.”
as §4

[4] = system: Salsola kali (Russian thistle), SASKR; assay: Greenhouse postemergence trial, visual injury on Russian thistle
Procedure: (§7) Greenhouse Trial Methodology-Evaluation of Postemergence Herbicidal […] in Crops […] When required to ensure good germination and healthy plants, a fungicide treatment and/or other chemical or physical treatment was applied. The plants were grown for 7-36 days (d) in a greenhouse with an approximate 14-hour (h) photoperiod which was maintained at about 23° C. during the day and 22° C. during the night. Nutrients and water were added on a regular basis and supplemental lighting was provided with overhead metal halide 1000-Watt lamps as necessary. The plants were employed for testing when they reached the second or third true leaf stage. Emulsifiable concentrates of each of each pyridine carboxylate herbicide (Compound A or Compound B) were prepared at 100 grams acid equivalent per liter (g ae/L). […] The concentrated stock solutions were further diluted with an aqueous mixture of 1.25% […] or MSO® Concentrate with LECI-TECH® to obtain stock solutions at reduced application rates for each herbicide. Spray solutions of the herbicide combinations (Compound A or Compound B plus safener) were prepared by adding weighed amounts or aliquots of the safener to the stock solutions of Compound A or Compound B to form 12-mL spray solutions in two-way combinations. […] Control plants were sprayed in the same manner with the solvent blank. All herbicide (component a) application rates are given as “g ae/ha” and all safener (component b) application rates are given as “g ai/ha.” The treated plants and control plants were placed in a greenhouse as described above and watered by sub-irrigation to prevent wash-off of the test compounds.

[5] = system: Fagopyrum esculentum (common buckwheat), FAGES; assay: Greenhouse postemergence trial, visual injury on common buckwheat
From the text: as §1, §2, §5, §6, §4

[6] = system: Hordeum vulgare (spring barley), HORVS; assay: Greenhouse postemergence safening trial, visual injury on spring barley
Procedure: as §7

[7] = system: kochia (KCHSC, Kochia scoparia); assay: Greenhouse postemergence trial, visual injury on kochia; settings: Table 19
From the text: as §1, §2, §3, §4

[8] = system: Johnson grass (SORHA, Sorghum halepense); assay: Greenhouse postemergence trial, visual injury on Johnson grass; settings: Table 19
From the text: as §1, §2, §3, §4

[9] = system: ivyleaf morningglory (IPOHE, Ipomoea hederacea); assay: Greenhouse postemergence trial, visual injury on ivyleaf morningglory; settings: Table 19
From the text: as §1, §2, §3, §4

[10] = system: Brassica napus (winter rape), BRSNW; assay: Greenhouse postemergence trial, visual injury on winter rape
Procedure: as §7

[11] = system: wild oat (AVEFA, Avena fatua); assay: Greenhouse postemergence trial, visual injury on wild oat; settings: Table 19
From the text: as §1, §2, §3, §4

rice (ORYSA) = assay: Greenhouse postemergence safening trial, visual injury on rice; settings: Table 19
From the text: as §1, §2, §3, §4

[12] = CQC-mexyl 5 g/ha alone, Table 15
[13] = CQC-mexyl 10 g/ha alone, Table 15
[14] = CQC-mexyl 20 g/ha alone, Table 15
[15] = CQC-mexyl 40 g/ha alone, Table 15
[16] = Compound A 20 g/ha alone, Table 15

CCCCCC(C)OC(=O)COc1ccc(Cl)c2cccnc12 (stereo not shown) [CQC-mexyl, cloquintocet-mexyl]
% visual injury, Ob ([1]; CQC-mexyl 20 g/ha alone): 0%
% visual injury, Ob ([1]; CQC-mexyl 40 g/ha alone): 0%
% visual injury, Ob ([1]; CQC-mexyl 80 g/ha alone): 0%
% visual injury, Ob ([2]; CQC-mexyl 20 g/ha alone): 0%
% visual injury, Ob ([2]; CQC-mexyl 40 g/ha alone): 0%
% visual injury, Ob ([2]; CQC-mexyl 80 g/ha alone): 0%
% visual injury, Ob [3, 12]: 0%
% visual injury, Ob [3, 13]: 0%
% visual injury, Ob [3, 14]: 0%
% visual injury, Ob [3, 15]: 0%
% visual injury, Ob ([4]; safener alone 5 g/ha): 0%
% visual injury, Ob ([4]; safener alone 10 g/ha): 0%
% visual injury, Ob ([4]; safener alone 20 g/ha): 0%
% visual injury, Ob ([4]; safener alone 40 g/ha): 0%
% visual injury, Ob ([5]; safener alone 5 g/ha): 0%
% visual injury, Ob ([5]; safener alone 10 g/ha): 0%
% visual injury, Ob ([5]; safener alone 20 g/ha): 0%
% visual injury, Ob ([5]; safener alone 40 g/ha): 0%
% visual injury, Ob [6, 12]: 0%
% visual injury, Ob [6, 13]: 0%
% visual injury, Ob ([6]; CQC-mexyl 10 g/ha alone, Table 16): 0%
% visual injury, Ob [6, 14]: 0%
% visual injury, Ob ([6]; CQC-mexyl 20 g/ha alone, Table 16): 0%
% visual injury, Ob ([6]; CQC-mexyl 40 g/ha alone, Table 14): 0%
% visual injury, Ob [6, 15]: 0%
% visual injury, Ob ([6]; CQC-mexyl 40 g/ha alone, Table 16): 0%
% visual injury, Ob ([6]; CQC-mexyl 80 g/ha alone, Table 16): 0%
% visual injury, Ob ([6]; safener alone 5 g/ha): 0%
% visual injury, Ob ([6]; safener alone 10 g/ha): 0%
% visual injury, Ob ([6]; safener alone 20 g/ha): 0%
% visual injury, Ob ([6]; safener alone 40 g/ha): 0%
% visual injury, Ob ([7]; CQC-mexyl 20 g/ha alone): 0%
% visual injury, Ob ([7]; CQC-mexyl 40 g/ha alone): 0%
% visual injury, Ob ([7]; CQC-mexyl 80 g/ha alone): 0%
% visual injury, Ob ([8]; CQC-mexyl 20 g/ha alone): 0%
% visual injury, Ob ([8]; CQC-mexyl 40 g/ha alone): 0%
% visual injury, Ob ([8]; CQC-mexyl 80 g/ha alone): 0%
% visual injury, Ob ([9]; CQC-mexyl 20 g/ha alone): 0%
% visual injury, Ob ([9]; CQC-mexyl 40 g/ha alone): 0%
% visual injury, Ob ([9]; CQC-mexyl 80 g/ha alone): 0%
% visual injury, Ob [10, 12]: 0%
% visual injury, Ob [10, 13]: 0%
% visual injury, Ob [10, 14]: 0%
% visual injury, Ob ([10]; CQC-mexyl 20 g/ha alone, Table 19): 0%
% visual injury, Ob [10, 15]: 0%
% visual injury, Ob ([10]; CQC-mexyl 40 g/ha alone, Table 19): 0%
% visual injury, Ob ([10]; CQC-mexyl 80 g/ha alone, Table 19): 0%
% visual injury, Ob ([10]; safener alone 5 g/ha): 0%
% visual injury, Ob ([10]; safener alone 10 g/ha): 0%
% visual injury, Ob ([10]; safener alone 20 g/ha): 0%
% visual injury, Ob ([10]; safener alone 40 g/ha): 0%
% visual injury, Ob ([11]; CQC-mexyl 20 g/ha alone): 0%
% visual injury, Ob ([11]; CQC-mexyl 40 g/ha alone): 0%
% visual injury, Ob ([11]; CQC-mexyl 80 g/ha alone): 0%
% visual injury, Ob (rice (ORYSA); CQC-mexyl 20 g/ha alone): 0%
% visual injury, Ob (rice (ORYSA); CQC-mexyl 40 g/ha alone): 0%
% visual injury, Ob (rice (ORYSA); CQC-mexyl 80 g/ha alone): 0%

N#CCOC(=O)c1nc(-c2ccc3cc[nH]c3c2F)c(F)c(N)c1Cl [Compound A, cyanomethyl 4-amino-3-chloro-5-fluoro-6-(7-fluoro-1H-indol-6-yl)pyridine-2-carboxylate]
% visual injury, Ob ([1]; Compound A 20 g/ha alone): 100%
% visual injury, Ob ([2]; Compound A 20 g/ha alone): 88%
% visual injury, Ob [3, 16]: 95%
% visual injury, Ob ([3]; herbicide alone 20 g/ha): 95%
% visual injury, Ob ([4]; herbicide alone 20 g/ha): 60%
% visual injury, Ob [6, 16]: 20%
% visual injury, Ob ([6]; Compound A 40 g/ha alone, Table 14): 20%
% visual injury, Ob ([6]; Compound A 40 g/ha alone, Table 16): 40%
% visual injury, Ob ([7]; Compound A 20 g/ha alone): 97%
% visual injury, Ob ([8]; Compound A 20 g/ha alone): 0%
% visual injury, Ob ([9]; Compound A 20 g/ha alone): 0%
% visual injury, Ob [10, 16]: 70%
% visual injury, Ob ([10]; Compound A 20 g/ha alone, Table 19): 85%
% visual injury, Ob ([10]; herbicide alone 20 g/ha): 70% and 95%
% visual injury, Ob ([11]; Compound A 20 g/ha alone): 0%
% visual injury, Ob (rice (ORYSA); Compound A 20 g/ha alone): 10%
